The values below are quoted from earlier work in patent US20210319872A1, “DRUG AND DEVICE COMBINATION PRODUCTS WITH IMPROVED SAFETY AND EFFICACY PROFILES” (priority 2016, published 2021).

The structures appear in SMILES notation. Like-named read-outs stand apart in the source and are kept apart here.

The mark [1] stands for this setting: nonvalvular atrial fibrillation.

Turning to `CNCC[C@H](Oc1cccc2ccccc12)c1cccs1` [Duloxetine (Cymbalta)], where the note is “in vivo”, the Constipation entry is listed as “Gastrointestinal: Constipation (9% to 10%), Decrease in appetite”; the Diaphoresis result was “Dermatologic: Diaphoresis (Adult, 6%; pediatric, less than 2%)”; the Diarrhea result was “(6% to 10%), Diarrhea (Adult, 9%; pediatric, 6%), Nausea (18% to”; the Dizziness result is given as “Neurologic: Asthenia, Dizziness (Adult, 9%; pediatric, 8%),”. Besides, for the setting “in vivo”, the Headache result is on record as “Headache (Adult, 13% to 14%; pediatric, 18%), Hypersomnia,”; the Hypertension entry is recorded as “Cardiovascular: Hypertension (2%)”; the Insomnia result is listed as “Insomnia (7% to 10%), Sedated, Somnolence”; the Myocardial infarction result was “Cardiovascular: Hypertensive crisis, Myocardial infarction (0.01%”. Besides, the Xerostomia (in vivo) is given as 23%), Xerostomia (Adult, 11% to 14%; pediatric, 2%).

Take `CCOC(=O)[C@H](CCc1ccccc1)N[C@@H](C)C(=O)N1[C@H](C(=O)O)C[C@@H]2CCC[C@@H]21` [Ramipril (Altace)]: where the note is “in vivo”, the Cough result is “Respiratory: Cough (8% to 12%)”; the Dizziness entry was “Neurologic: Asthenia, Dizziness (2.2% to 4%), Headache (5.4%)”; the Headache result was “Neurologic: Asthenia, Dizziness (2.2% to 4%), Headache (5.4%)”; the Hypotension entry is “Cardiovascular: Hypotension (11%)”.

Turning to `CCC(=O)O[C@@H](O[P@](=O)(CCCCc1ccccc1)CC(=O)N1C[C@H](C2CCCCC2)C[C@H]1C(=O)O)C(C)C` [Fosinopril (Monopril)], under “in vivo”, the Cough entry is recorded as “Respiratory: Cough (2.2% to 9.7%)”, the Dizziness result was “Neurologic: Dizziness (1.6% to 11.9%)”, the Hyperkalemia result was “Endocrine metabolic: Hyperkalemia (2.6%)” and the Hypotension result is listed as “Cardiovascular: Hypotension (2.4% to 4.4%)”. Also, where the note is “in vivo”, the Nausea and vomiting entry is “Gastrointestinal: Nausea and vomiting (1.2% to 2.2%)”.

As for `COC(=O)C(c1ccccc1)C1CCCCN1` (centres unmarked) [Methylphenidate], where the note is “in vivo”, the Aggressive behavior result is “Psychiatric: Aggressive behavior (Adult, 1.7%), Mania, Psychotic”; the Decrease in appetite result is “appetite (Adult, 25.3%; pediatric, 2% to 9% or greater), Loss of”; the Diaphoresis result is on record as “Dermatologic: Diaphoresis (Adult, 5.1%)”; the Dizziness result is “Neurologic: Dizziness (Adult, 6.7%; pediatric, 1.9%.), Headache”. Moreover, under “in vivo”, the Headache entry is on record as “(Adult, 22.2%; pediatric, up to 12%), Insomnia (Adult, 12.3%;”; the Irritability is given as 3.9%), Irritability (Adult, 5.8%); the Nausea result is listed as “(Adult, 12.8%), Vomiting (2% or greater), Xerostomia (Adult,”; the “Serious side effect, Endocrine metabolic” value is on record as “Endocrine metabolic: Decreased body growth”. Further, under “in vivo”, the “Serious side effect, Gastrointestinal” value was “Gastrointestinal: Gastrointestinal obstruction, with preexisting”; the “Serious side effect, Hepatic” value was “Hepatic: Abnormal liver function”; the “Serious side effect, Psychiatric” value is given as “Psychiatric: Aggressive behavior (Adult, 1.7%), Mania, Psychotic”; the “Serious side effect, Reproductive” value is reported as “Reproductive: Priapism”. Where the note is “in vivo”, the Tachycardia entry is on record as “Cardiovascular: Tachycardia (Adult, 4.8%)”; the Vomiting result is recorded as “(Adult, 12.8%), Vomiting (2% or greater), Xerostomia (Adult,”; the Weight decreased result is given as “Endocrine metabolic: Weight decreased (Adult, 6.5%)”; the Xerostomia is 14%).

For `O=C1CC2(CCCC2)CC(=O)N1CCCCN1CCN(c2ncccn2)CC1` [Buspirone (Buspar)], for the setting “in vivo”, the Cerebrovascular accident result is reported as “Neurologic: Cerebrovascular accident (less than 0.1%)”; the Congestive heart failure entry is reported as “Cardiovascular: Congestive heart failure (less than 0.1%),”; the Dizziness result is listed as “Neurologic: Dizziness (12%), Headache (6%), Somnolence (10%)”; the Feeling nervous entry is given as “Psychiatric: Feeling nervous (5%)”. For the setting “in vivo”, the Headache entry was “Neurologic: Dizziness (12%), Headache (6%), Somnolence (10%)”; the Myocardial infarction entry is “Myocardial infarction (less than 0.1%)”; the Nausea entry is on record as “Gastrointestinal: Nausea (8%)”; the Somnolence entry is listed as “Neurologic: Dizziness (12%), Headache (6%), Somnolence (10%)”.

Take `CCC1(CCC(C)C)C(=O)NC(=O)NC1=O` [Amytal (amobarbital)]: under “in vivo”, the Agranulocytosis result is recorded as “Hematologic: Agranulocytosis (rare), Megaloblastic anemia, With”; the “Common side effect, Neurologic” value is “Neurologic: Confusion, Dizziness, Headache, Somnolence”; the “Injury of liver, With prolonged use” value was “Hepatic: Injury of liver, With prolonged use (rare)”; the “Megaloblastic anemia, With prolonged use” value was “prolonged use (rare)”. For the same molecule, under “in vivo”, the “Serious side effect, Respiratory” value is on record as “Respiratory: Apnea, Hypoventilation” and the Stevens-Johnson syndrome entry is reported as “Dermatologic: Stevens-Johnson syndrome (rare)”.

Take `CCOC(=O)C1=C(C)NC(C)=C(C(=O)OC)C1c1cccc(Cl)c1Cl` (centres unmarked) [Felodipine (Plendil)]: where the note is “in vivo”, the Flushing result is “Dermatologic: Flushing (3.9% to 6.9%)”; the Headache entry was “Neurologic: Headache (10.6% to 14.7%)”; the Hypotension entry is recorded as “Cardiovascular: Angina, Hypotension (less than 0.5%), Myocardial”; the Indigestion result is “Gastrointestinal: Indigestion (0.5% to 3.9%)”. In addition, where the note is “in vivo”, the Peripheral edema entry was “Cardiovascular: Peripheral edema (2% to 17.4%)” and the Upper respiratory infection result is “Respiratory: Upper respiratory infection (0.7% to 3.9%)”.

`CCOC(=O)[C@H](CCc1ccccc1)N[C@H]1CCc2ccccc2N(CC(=O)O)C1=O` [Benazepril (Lotensin)]: where the note is “in vivo”, the “Angioedema, head and neck” value is “Other: Angioedema, head and neck (0.5%)”; the Cough result is reported as “Respiratory: Cough (1.2%)”; the Dizziness result is “Neurologic: Dizziness (3.6%), Headache (6.2%)”; the Fatigue result is listed as “Other: Fatigue (2.4%)”. Moreover, where the note is “in vivo”, the Headache result is “Neurologic: Dizziness (3.6%), Headache (6.2%)” and the Stevens-Johnson syndrome result is reported as “Dermatologic: Stevens-Johnson syndrome (less than 1%)”.

On to `CN1C(=O)CN=C(c2ccccc2)c2cc(Cl)ccc21` [Valium (diazepam)], for which, under “in vivo”, the “Common side effect, Cardiovascular” value is reported as “Cardiovascular: Hypotension”; the “Common side effect, Musculoskeletal” value is on record as “Musculoskeletal: Muscle weakness”; the “Common side effect, Neurologic” value was “Neurologic: Ataxia, Incoordination (3%, rectal gel), Somnolence”; the “Common side effect, Other” value was “Other: Fatigue”. Also, where the note is “in vivo”, the “Common side effect, Respiratory” value was “Respiratory: Respiratory depression”; the Diarrhea result is “Gastrointestinal: Diarrhea (4%, rectal gel)”; the Euphoria result is reported as “Psychiatric: Euphoria (3%, rectal gel)”; the Incoordination result was “Neurologic: Ataxia, Incoordination (3%, rectal gel), Somnolence”. Moreover, where the note is “in vivo”, the Rash entry was “Dermatologic: Rash (3%, rectal gel)” and the “Serious side effect, Hematologic” value is “Hematologic: Neutropenia”.

As for `CCN(C(C)=O)c1cccc(-c2ccnc3c(C#N)cnn23)c1` [Sonata (zaleplon)], where the note is “in vivo”, the Anaphylaxis entry is reported as “Immunologic: Anaphylaxis (rare)”; the Angioedema entry is “Other: Angioedema (rare)”; the Depression entry is reported as “Depression (at least 1%), Suicidal behavior, Suicidal thoughts”; the Dizziness result is “Neurologic: Dizziness (7% to 9%), Headache (30% to 42%)”. Besides, where the note is “in vivo”, the Drug withdrawal seizure entry is recorded as “Neurologic: Drug withdrawal seizure (rare)” and the Headache result is on record as “Neurologic: Dizziness (7% to 9%), Headache (30% to 42%)”.

For the molecule `CCC(=O)C(CC(C)N(C)C)(c1ccccc1)c1ccccc1` (centres unmarked) [Methadone], for the setting “in vivo”, the “Common side effect, Cardiovascular” value was “Cardiovascular: Hypotension”; the “Common side effect, Endocrine metabolic” value is recorded as “Endocrine metabolic: Diaphoresis”; the “Common side effect, Gastrointestinal” value is recorded as “Gastrointestinal: Constipation, Nausea, Vomiting”; the “Common side effect, Neurologic” value is on record as “Neurologic: Asthenia, Dizziness, Lightheadedness, Sedated”. In addition, for the setting “in vivo”, the “Serious side effect, Endocrine metabolic” value was “Endocrine metabolic: Hypoglycemia”; the “Serious side effect, Other” value is given as “Other: Drug dependence”; the “Serious side effect, Respiratory” value is recorded as “Respiratory: Respiratory acidosis, Respiratory arrest, Respiratory”.

As to `CCCCCCOC(=O)NC(=N)c1ccc(NCc2nc3cc(C(=O)N(CCC(=O)OCC)c4ccccn4)ccc3n2C)cc1` [Pradaxa], the Gastroesophageal reflux disease entry (Atrial fibrillation) was “disease (Atrial fibrillation, 5.5%), Gastrointestinal hemorrhage”. In addition, where the note is “DVT and pulmonary embolism”, the Indigestion entry is recorded as “pulmonary embolism, 7.5%)” and the Intracranial hemorrhage was 0.1%. Moreover, the Bleeding (DVT and pulmonary embolism prophylaxis) is given as 10.5%. For the setting “listed without frequency”, the “Serious side effect, Hematologic” value is reported as “Thrombosis”; the “Serious side effect, Immunologic” value is listed as “Immunologic: Anaphylaxis”; the “Serious side effect, Respiratory” value is “Respiratory: Bleeding, Alveolar”. Besides, under setting [1], the Bleeding was 16.6%; the “Bleeding, Major” value was 3.3%; the Gastrointestinal hemorrhage is given as 6.1%; the “Gastrointestinal hemorrhage, Major” value was 1.6%). For the same molecule, under setting [1], the Intracranial hemorrhage entry is “(nonvalvular atrial fibrillation, 0.3%; DVT and pulmonary”; the Myocardial infarction is listed as 0.7%.

As for `O=[N+]([O-])OCC(CO[N+](=O)[O-])O[N+](=O)[O-]` [Nitrates (Nitroglycerin)], where the note is “in vivo”, the “Common side effect listed (incidence not given)” value is “Dermatologic: Flushing”; the “Dizziness (incidence)” value is given as “Neurologic: Dizziness (5%), Headache (63% to 64%),”; the “Headache (incidence)” value is on record as “Neurologic: Dizziness (5%), Headache (63% to 64%),”; the “Hypotension (incidence)” value is “Cardiovascular: Hypotension (4%)”. Besides, the “Lightheadedness (incidence)” value (in vivo) was “Lightheadedness (6%)”.

Take `CCCc1nc2c(C)cc(-c3nc4ccccc4n3C)cc2n1Cc1ccc(-c2ccccc2C(=O)O)cc1` [Telmisartan (Micardis))]: under “in vivo”, the Cough result is “Respiratory: Cough (1.6% to 15.6%), Upper respiratory infection”; the “Serious side effects, listed without incidence or only as rare” value is reported as “Musculoskeletal: Rhabdomyolysis (rare)”; the Upper respiratory infection entry was “(7%)”.
